According to ChEMBL document CHEMBL1201862, “PubChem BioAssay data set” (2004):
Active and inactive are the calls of the source.

Legend:
[1] = target: G-protein coupled receptor 55 (Homo sapiens, UniProt Q9Y2T6); assay: inhibition of LPI-stimulated GPR55 beta-arrestin translocation – imaging, U2OS, beta-arrestin-GFP, LPI agonist, primary screen (AID 2013); type: functional;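 further: antagonist potency measured as reduced agonist-driven arrestin aggregation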
[2] = target: T1, Delta-type opioid receptor (Homo sapiens, UniProt P41143); assay: HTS Image-Based Screen for Antagonists of the DOR Receptor. [Related pubchem assays (depositor defined):AID1777, AID1785, AID1786, AID2133]; type: functional
Mu-type opioid receptor [3] = target: T2, Mu-type opioid receptor (Homo sapiens, UniProt P35372); assay: HTS Image-Based Screen for Agonists of the MOR Receptor. [Related pubchem assays (depositor defined):AID1777, AID1785, AID1786, AID2133]; type: functional
[4] = target: T3, Neuropeptides B/W receptor type 1 (Homo sapiens, UniProt P48145); assay: Fluorescence-based dose response cell-based high throughput screening assay to identify antagonists of the G-protein coupled receptor 7 (GPR7). [Related pubchem assays: 1952 (Screening assay (GPR7 antagonists).), 1880 (Summary AID.)]; type: functional
T3 sequence (P48145 whole entry): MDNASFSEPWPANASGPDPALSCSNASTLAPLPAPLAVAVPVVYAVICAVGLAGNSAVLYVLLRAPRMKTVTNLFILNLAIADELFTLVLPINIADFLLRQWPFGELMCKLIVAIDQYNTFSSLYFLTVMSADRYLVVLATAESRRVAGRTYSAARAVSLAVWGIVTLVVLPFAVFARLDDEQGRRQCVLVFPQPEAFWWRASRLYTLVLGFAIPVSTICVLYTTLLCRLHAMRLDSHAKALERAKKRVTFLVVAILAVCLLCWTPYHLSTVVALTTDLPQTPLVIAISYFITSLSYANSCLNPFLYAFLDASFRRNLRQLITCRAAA

[5] = target: T1, Delta-type opioid receptor; assay: HTS Image-Based Screen for Agonists of the DOR Receptor. [Related pubchem assays (depositor defined):AID1777, AID1786, AID2133]; type: functional
[6] = target: T4, Melanin-concentrating hormone receptor 1 (Homo sapiens, UniProt Q99705); assay: Fluorescence-based counterscreen for antagonists of the G-protein coupled receptor 7 (GPR7): cell-based high throughput dose response assay to identify antagonists of the melanin-concentrating hormone receptor 1 (MCHR1).; type: functional
[7] = target: T5, Kappa-type opioid receptor (Homo sapiens, UniProt P41145); type: functional
[8] = target: T5, Kappa-type opioid receptor; type: functional; remark: listed apart in the source
[9] = target: T6, Heat shock factor protein 1 (Mus musculus, UniProt P38532); assay: enhancement of HSF1-driven luciferase signal – cell-based, NIH3T3, luminescence, dose retest, confirmation (AID 435004); type: functional;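 further: stress induced by proteasome inhibitor MG132 added 30 min after compound; luciferase reporter driven by HSF1 response element in NIH3T3 cells; actives raise luminescence as potentiators of the MG132 stress response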
T6 sequence (P38532 whole entry): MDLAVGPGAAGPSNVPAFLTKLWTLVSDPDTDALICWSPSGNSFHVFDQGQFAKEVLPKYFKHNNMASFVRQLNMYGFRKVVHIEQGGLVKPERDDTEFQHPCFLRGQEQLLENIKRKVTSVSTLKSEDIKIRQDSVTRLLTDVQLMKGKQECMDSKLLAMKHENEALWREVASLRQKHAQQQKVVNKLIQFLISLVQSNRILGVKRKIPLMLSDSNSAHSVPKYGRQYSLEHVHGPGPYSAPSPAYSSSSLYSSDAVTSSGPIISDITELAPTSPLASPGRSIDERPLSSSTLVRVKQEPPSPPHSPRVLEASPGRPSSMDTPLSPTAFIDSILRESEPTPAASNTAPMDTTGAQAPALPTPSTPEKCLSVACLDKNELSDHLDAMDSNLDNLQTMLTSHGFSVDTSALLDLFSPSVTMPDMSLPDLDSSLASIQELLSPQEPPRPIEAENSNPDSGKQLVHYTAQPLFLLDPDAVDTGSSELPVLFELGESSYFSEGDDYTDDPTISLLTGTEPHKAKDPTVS

Mucolipin-3 = target: T7, Mucolipin-3 (Homo sapiens, UniProt Q8TDD5); assay: Dose response cell-based high-throughput screening assay for agonists of the transient receptor potential channel ML3 (TRPML3). [Related pubchem assays: 1526, 1424, 1448 ]; type: functional
T7 sequence (Q8TDD5 whole entry): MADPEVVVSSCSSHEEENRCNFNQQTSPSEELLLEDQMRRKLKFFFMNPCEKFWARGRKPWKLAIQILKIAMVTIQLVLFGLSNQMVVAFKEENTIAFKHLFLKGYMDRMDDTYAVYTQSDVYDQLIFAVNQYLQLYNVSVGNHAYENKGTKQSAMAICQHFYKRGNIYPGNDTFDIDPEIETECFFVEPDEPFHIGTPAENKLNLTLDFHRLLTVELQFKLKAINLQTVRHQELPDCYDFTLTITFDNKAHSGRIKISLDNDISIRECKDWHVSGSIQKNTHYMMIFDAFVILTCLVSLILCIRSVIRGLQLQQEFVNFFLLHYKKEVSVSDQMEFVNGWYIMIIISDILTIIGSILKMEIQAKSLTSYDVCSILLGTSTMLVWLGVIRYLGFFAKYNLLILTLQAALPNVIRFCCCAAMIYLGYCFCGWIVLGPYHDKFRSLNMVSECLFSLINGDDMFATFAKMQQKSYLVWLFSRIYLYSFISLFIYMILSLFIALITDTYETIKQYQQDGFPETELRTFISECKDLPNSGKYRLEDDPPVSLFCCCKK

[10] = target: T5, Kappa-type opioid receptor; type: functional; remark: listed apart in the source
Beta-galactosidase [11] = target: T8, Beta-galactosidase (Escherichia coli, UniProt Q8VNN2); type: functional
[12] = target: T5, Kappa-type opioid receptor; type: functional; remark: listed apart in the source
Ion channel NompC = Ion channel NompC (Danio rerio, UniProt Q7T1G6); assay: Fluorescence counterscreen assay for TRPML3 agonists: dose response cell-based high-throughput screening assay to identify agonists of the transient receptor potential channel N1 (TRPN1). [Related pubchem assays: 1526, 1424, 1448 ]; type: functional
Beta-galactosidase [13] = target: T8, Beta-galactosidase; assay: detection-enzyme interference by beta-gal modulators – biochemical, E. coli enzyme, set 3, artefact control for CCR6 antagonist project, dose response (AID 504712); type: functional
[14] = target: Photoreceptor-specific nuclear receptor (Homo sapiens, UniProt Q9Y5X4); type: functional, cell-based;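 further: CHO-S cells with Gal4-NCOR and VP16-NR2E3 two-hybrid luciferase reporter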
Protein Rev = Protein Rev (Human immunodeficiency virus type 1 group M subtype B (isolate HXB2)(HIV-1), UniProt P04618); assay: blockers of HIV Rev/RRE RNA complex – biochemical, fluorescence polarization, HIV-1, dose response (AID 434976); set-up: species or system Human immunodeficiency virus 1
[15] = target: Female germline-specific tumor suppressor gld-1 (Caenorhabditis elegans, UniProt Q17339); assay: blockers of GLD-1/TGE RNA complex formation – biochemical, fluorescence polarization, C. elegans, dose response (AID 2802);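 further: fluorescence polarization of labeled TGE RNA bound by purified gld-1 protein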
[16] = target: T9, Polyadenylate-binding protein 1 (Homo sapiens, UniProt P11940); assay: MLLE binding blockers, Cy5 peptide tracer – biochemical, fluorescence polarization, Cy5-PAM2 peptide, secondary, miRNA deadenylation inhibitor project, dose response (AID 602260); type: functional; conditions: read-out: IC50_Mean
[17] = target: T9, Polyadenylate-binding protein 1; assay: MLLE domain peptide-binding blockers, IC50 – biochemical, fluorescence polarization, FITC-PAM2 peptide, dose response (AID 602259); type: functional; conditions: read-out: IC50_Mean
[18] = target: T10, Corticotropin-releasing factor receptor 2/Corticotropin-releasing factor-binding protein (Homo sapiens, UniProt P24387+Q13324); assay: activators of CRF receptor 2 with binding protein – uHTS hits, confirmation (AID 602473); type: functional; conditions: read-out: EC50_Mean
T10 sequence (Q13324 whole entry): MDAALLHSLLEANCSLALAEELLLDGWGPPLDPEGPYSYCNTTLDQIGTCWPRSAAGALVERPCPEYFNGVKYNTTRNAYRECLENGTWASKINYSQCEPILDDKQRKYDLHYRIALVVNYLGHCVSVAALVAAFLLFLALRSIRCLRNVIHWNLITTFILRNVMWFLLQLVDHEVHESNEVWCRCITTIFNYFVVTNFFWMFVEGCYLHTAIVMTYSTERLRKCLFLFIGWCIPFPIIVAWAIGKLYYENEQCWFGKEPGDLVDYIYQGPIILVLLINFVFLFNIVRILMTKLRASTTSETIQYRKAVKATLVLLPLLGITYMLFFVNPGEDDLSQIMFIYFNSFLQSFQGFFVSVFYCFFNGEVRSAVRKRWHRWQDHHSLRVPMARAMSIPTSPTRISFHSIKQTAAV
T10 sequence (P24387 whole entry): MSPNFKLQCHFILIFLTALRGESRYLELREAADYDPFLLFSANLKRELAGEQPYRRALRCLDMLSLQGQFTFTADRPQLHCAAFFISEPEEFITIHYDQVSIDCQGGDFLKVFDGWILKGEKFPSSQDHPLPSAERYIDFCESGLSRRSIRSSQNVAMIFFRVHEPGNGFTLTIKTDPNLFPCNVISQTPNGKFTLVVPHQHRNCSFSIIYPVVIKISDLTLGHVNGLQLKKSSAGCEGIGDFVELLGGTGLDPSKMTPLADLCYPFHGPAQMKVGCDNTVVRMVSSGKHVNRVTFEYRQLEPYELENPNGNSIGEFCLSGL

[19] = target: T11, Sentrin-specific protease 1 (Homo sapiens, UniProt Q9P0U3); assay: SENP1 catalytic domain blockers, concentration series – biochemical, kinetic FRET, dose response (AID 651697); type: functional; conditions: read-out: IC50_Mean
T11 sequence (Q9P0U3 whole entry): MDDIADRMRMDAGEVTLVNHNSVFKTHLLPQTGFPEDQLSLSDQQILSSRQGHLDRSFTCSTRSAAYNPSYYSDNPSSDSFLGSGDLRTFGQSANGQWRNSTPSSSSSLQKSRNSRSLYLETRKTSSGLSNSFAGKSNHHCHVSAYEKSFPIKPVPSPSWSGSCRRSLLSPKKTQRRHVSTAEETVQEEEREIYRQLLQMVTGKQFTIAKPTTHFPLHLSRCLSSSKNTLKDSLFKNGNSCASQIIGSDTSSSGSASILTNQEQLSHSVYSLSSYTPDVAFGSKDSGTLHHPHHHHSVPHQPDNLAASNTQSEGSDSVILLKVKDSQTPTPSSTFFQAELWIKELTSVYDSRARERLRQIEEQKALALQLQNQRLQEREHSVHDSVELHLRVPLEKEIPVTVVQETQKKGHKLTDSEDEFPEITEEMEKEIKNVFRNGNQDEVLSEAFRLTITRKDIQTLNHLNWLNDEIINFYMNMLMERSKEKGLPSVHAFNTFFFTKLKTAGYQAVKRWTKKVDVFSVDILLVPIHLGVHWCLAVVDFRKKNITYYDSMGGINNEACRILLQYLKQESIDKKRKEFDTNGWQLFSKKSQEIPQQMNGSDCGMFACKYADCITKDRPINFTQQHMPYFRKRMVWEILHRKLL

[20] = target: T11, Sentrin-specific protease 1; assay: Dose response confirmation of small molecule inhibitors of the catalytic domain of the SUMO protease, SENP1 in a FRET assay.; type: functional; conditions: read-out: IC50_Mean
[21] = target: Voltage-dependent T-type calcium channel subunit alpha-1H (Homo sapiens, UniProt O95180); assay: human CACNA1H calcium influx blockade – cell-based, synthetic library set 1, calcium flux (AID 493022); type: functional
Hexokinase = Hexokinase (Trypanosoma brucei, UniProt Q38C41); assay: Confirmation assay for inhibitors of Trypanosoma brucei hexokinase 1-Analogue-first series. [Related pubchem assays (depositor defined):AID1430, AID1632, AID2516, AID2560, AID2579, AID2600, AID449725, AID492951]; type: functional
Mu-type opioid receptor [22] = target: T2, Mu-type opioid receptor; assay: SAR Analysis of Antagonists of the MOR Receptor using an Image-Based Assay - Set 3. [Related pubchem assays (depositor defined):AID1777, AID1785, AID1786, AID1966, AID2133, AID2136, AID2284, AID2285, AID2420]; type: functional
[23] = target: T1, Delta-type opioid receptor; assay: SAR Analysis of Antagonists of the DOR Receptor using an Image-Based Assay - Set 3. [Related pubchem assays (depositor defined):AID1777, AID1785]; type: functional
[24] = target: T4, Melanin-concentrating hormone receptor 1; assay: Late-stage fluorescence-based counterscreen for antagonists of the G-protein coupled receptor 7 (GPR7): cell-based dose response assay to identify antagonists of the melanin-concentrating hormone receptor 1 (MCHR1). [Related pubchem assays (depositor defined):AID1861, AID1880, AID1952, AID2148, AID2251, AID2257, AID485339]; type: functional
[25] = target: T3, Neuropeptides B/W receptor type 1; assay: human NPBW1 receptor blockade, IC50 – cell-based, fluorescence, dose response, late-stage follow-up (AID 463251); type: functional
Nonstructural protein 1 = Nonstructural protein 1 (Influenza A virus, UniProt Q194T2); type: functional, Influenza A virus (A/California/07/2009(H1N1))
Chain of Nonstructural protein 1 (Q194T2 whole entry): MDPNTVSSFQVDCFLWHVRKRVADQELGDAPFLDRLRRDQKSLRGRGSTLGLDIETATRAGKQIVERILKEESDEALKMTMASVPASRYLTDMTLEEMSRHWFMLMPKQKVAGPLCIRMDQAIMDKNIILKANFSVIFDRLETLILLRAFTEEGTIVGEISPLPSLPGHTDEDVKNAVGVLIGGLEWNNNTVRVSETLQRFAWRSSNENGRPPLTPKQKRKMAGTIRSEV

T1 sequence (P41143 whole entry): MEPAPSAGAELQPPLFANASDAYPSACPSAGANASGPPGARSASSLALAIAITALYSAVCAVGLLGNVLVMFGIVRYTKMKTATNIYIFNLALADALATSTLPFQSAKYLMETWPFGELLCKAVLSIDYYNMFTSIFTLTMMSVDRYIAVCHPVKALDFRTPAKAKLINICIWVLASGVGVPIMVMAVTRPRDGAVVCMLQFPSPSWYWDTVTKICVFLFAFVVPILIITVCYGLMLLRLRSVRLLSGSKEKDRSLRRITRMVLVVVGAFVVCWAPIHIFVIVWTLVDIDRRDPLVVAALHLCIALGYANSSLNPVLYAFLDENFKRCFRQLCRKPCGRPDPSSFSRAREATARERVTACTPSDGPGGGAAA
T5 sequence (P41145 whole entry): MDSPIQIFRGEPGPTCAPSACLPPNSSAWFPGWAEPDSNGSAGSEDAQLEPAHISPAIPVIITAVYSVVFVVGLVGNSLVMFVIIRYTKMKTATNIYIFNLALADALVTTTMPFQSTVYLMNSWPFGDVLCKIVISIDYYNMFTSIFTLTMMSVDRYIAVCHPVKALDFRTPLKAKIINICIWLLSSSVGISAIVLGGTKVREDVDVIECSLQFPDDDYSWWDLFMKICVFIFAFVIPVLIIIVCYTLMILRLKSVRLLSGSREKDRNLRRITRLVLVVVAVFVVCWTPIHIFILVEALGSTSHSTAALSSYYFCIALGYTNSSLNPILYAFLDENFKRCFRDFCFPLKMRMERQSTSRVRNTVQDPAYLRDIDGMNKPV
T9 sequence (P11940 whole entry, the tested form may be a part): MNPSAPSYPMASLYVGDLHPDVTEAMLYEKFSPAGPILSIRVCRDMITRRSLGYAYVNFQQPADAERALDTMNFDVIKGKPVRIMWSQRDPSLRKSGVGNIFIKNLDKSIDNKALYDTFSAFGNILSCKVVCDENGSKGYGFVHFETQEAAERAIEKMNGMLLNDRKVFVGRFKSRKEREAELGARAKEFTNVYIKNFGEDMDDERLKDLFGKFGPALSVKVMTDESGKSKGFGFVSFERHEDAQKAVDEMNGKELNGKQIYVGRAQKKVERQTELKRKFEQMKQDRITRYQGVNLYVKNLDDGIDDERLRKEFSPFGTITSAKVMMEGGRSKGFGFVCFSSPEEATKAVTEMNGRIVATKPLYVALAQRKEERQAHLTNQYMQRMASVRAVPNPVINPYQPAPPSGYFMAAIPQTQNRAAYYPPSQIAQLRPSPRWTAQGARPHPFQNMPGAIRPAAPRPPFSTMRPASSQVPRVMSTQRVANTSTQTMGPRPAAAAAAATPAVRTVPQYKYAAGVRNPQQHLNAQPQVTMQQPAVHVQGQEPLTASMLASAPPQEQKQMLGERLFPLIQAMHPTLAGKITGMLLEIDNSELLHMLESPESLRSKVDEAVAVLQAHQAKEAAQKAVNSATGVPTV
T4 sequence (Q99705 whole entry): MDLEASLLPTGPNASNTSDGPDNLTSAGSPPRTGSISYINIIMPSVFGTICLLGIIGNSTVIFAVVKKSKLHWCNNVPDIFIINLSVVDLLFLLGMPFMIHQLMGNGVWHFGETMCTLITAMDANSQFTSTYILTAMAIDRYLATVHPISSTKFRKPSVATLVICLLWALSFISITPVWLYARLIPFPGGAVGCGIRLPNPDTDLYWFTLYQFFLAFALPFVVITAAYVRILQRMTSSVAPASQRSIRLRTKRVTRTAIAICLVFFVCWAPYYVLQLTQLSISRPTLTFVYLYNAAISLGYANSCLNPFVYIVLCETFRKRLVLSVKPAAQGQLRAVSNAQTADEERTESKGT
T2 sequence (P35372 whole entry): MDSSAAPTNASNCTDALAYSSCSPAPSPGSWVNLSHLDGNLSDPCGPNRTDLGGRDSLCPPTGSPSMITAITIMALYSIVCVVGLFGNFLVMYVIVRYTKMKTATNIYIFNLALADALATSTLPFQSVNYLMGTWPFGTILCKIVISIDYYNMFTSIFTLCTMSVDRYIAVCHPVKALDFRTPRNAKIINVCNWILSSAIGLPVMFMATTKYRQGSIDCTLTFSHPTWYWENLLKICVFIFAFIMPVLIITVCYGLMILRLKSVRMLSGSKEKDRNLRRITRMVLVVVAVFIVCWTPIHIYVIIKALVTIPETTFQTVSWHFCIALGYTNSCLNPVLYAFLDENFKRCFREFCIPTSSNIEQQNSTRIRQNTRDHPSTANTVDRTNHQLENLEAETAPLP
T8 sequence (Q8VNN2 whole entry): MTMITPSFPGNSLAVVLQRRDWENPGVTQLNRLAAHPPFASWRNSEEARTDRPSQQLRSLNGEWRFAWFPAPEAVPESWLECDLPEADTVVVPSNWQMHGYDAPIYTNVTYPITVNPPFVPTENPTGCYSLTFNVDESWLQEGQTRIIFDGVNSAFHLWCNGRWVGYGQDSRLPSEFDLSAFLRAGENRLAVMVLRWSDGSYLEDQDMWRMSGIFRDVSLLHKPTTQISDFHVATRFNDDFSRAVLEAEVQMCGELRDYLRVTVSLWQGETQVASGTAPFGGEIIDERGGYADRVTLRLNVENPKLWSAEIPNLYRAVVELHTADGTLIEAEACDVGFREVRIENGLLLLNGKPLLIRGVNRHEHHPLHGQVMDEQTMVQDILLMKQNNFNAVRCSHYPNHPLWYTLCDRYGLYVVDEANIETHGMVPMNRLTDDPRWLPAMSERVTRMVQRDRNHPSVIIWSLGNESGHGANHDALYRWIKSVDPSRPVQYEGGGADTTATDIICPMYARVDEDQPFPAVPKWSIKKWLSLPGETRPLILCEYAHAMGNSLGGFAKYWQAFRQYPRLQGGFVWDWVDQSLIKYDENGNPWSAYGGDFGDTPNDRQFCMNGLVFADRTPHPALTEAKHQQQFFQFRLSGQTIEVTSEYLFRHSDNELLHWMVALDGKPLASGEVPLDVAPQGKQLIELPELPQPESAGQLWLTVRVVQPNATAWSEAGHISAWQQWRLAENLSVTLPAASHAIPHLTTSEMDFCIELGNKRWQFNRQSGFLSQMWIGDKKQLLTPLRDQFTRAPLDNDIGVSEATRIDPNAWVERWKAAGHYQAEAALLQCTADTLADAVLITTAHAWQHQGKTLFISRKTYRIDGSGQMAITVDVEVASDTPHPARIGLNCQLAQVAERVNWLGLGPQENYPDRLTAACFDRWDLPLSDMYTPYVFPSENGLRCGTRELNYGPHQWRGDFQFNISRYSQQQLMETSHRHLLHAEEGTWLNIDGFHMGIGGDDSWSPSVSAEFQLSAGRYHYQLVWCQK
Chain of Female germline-specific tumor suppressor gld-1 (Q17339 whole entry): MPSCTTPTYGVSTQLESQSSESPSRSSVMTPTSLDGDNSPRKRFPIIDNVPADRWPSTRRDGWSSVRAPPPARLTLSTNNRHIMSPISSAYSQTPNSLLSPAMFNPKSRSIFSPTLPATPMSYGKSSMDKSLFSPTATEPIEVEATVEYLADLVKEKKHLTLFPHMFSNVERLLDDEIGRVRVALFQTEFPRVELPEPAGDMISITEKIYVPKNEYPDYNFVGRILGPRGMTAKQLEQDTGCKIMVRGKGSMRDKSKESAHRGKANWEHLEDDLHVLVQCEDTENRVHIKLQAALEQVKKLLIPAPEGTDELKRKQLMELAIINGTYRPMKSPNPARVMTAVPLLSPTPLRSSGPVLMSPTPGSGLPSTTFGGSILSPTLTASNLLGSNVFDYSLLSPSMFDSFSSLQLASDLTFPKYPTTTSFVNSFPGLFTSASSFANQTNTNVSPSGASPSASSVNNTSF
Chain of Photoreceptor-specific nuclear receptor (Q9Y5X4 whole entry, the tested form may be a part): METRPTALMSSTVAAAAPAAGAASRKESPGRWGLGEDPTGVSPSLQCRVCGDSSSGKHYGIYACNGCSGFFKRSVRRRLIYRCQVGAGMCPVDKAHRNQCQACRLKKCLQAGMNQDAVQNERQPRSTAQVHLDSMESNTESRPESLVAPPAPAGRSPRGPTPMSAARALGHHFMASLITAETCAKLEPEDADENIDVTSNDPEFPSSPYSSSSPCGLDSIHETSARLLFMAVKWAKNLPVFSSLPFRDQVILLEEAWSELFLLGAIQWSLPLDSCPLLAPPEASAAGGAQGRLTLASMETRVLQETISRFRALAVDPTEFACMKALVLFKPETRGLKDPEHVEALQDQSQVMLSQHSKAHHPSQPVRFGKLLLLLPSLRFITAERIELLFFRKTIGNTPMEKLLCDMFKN
Chain of Hexokinase (Q38C41 whole entry): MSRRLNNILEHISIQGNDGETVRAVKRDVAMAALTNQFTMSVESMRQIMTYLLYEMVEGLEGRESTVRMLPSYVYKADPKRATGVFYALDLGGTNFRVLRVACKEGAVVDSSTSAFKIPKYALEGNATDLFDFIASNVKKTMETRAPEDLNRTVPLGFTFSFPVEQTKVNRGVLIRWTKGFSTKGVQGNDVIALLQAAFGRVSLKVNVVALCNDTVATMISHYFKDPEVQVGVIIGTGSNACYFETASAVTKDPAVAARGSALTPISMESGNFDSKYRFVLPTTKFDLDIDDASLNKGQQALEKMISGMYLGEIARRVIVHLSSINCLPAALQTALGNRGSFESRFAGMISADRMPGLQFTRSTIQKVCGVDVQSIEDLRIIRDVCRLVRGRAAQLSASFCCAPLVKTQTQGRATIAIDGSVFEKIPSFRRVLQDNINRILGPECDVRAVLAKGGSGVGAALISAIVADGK
Chain of Protein Rev (P04618 whole entry): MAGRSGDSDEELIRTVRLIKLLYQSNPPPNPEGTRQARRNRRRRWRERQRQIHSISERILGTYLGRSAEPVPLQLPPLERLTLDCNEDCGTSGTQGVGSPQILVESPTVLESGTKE

C[C@H](NC(=O)c1nc[nH]c1C(=O)Nc1ccc(CNC(=O)OC(C)(C)C)cc1)C(=O)OC(C)(C)C
IC50 [1]: 2.55 µM (active)

O=C(c1ccccn1)N(Cc1ccco1)C1(C(=O)NC2CCCC2)CCCCC1
IC50 [2]: > 32 µM (inactive)
EC50 (Mu-type opioid receptor [3]): > 32 µM (inactive)
IC50 [4]: > 43.8 µM (not active)
EC50 [5]: > 32 µM (inactive)
IC50 [6]: > 43.8 µM (not active)
EC50 [7]: 12.3 µM
EC50 [8]: 14.6 µM
EC50 [9]: > 260 µM (inactive)

N=C1SCC(=O)N1c1ncc(Cc2ccccc2Cl)s1
EC50 (Mucolipin-3): 1.16 µM (active)
IC50 [10]: 6.6 µM (active)
EC50 (Beta-galactosidase [11]): > 31.5 µM (inactive)
IC50 [12]: > 32 µM
EC50 (Ion channel NompC): > 29.9 µM (not active)
IC50 (Beta-galactosidase [13]): > 66.6 µM (inactive)
IC50 [14]: 3 µM (active)

O=C1C2=C(SCCS2)C(=O)N1CCCO
IC50 (Protein Rev): > 75.4 µM (not active)
IC50 [15]: 4.07 µM (active)
IC50 [16]: > 66 µM (inactive)
IC50 [17]: 28 µM (inactive)
EC50 [18]: > 53 µM (inactive)
IC50 [19]: 20.5 µM (inactive)
IC50 [20]: 35.2 µM (inactive)

O=C(COc1ccccc1Cl)Nc1nnc(-c2ccc3ccccc3c2)o1
EC50 [21]: 4.8 µM (active)

Cc1ccccc1N1Cc2ccccc2C1=O
IC50 (Hexokinase): > 25 µM (inactive)

COc1ccc(N2CCN(CCCNC(=O)Cn3c(=O)c4cccn4c4c(C)ccnc43)CC2)cc1
IC50 (Mu-type opioid receptor [22]): > 32 µM (inactive)
IC50 [23]: > 32 µM (inactive)

Cc1cccc(CN2CCCCC2C(=O)N2CCN(c3ccc([N+](=O)[O-])cc3)CC2)c1 (stereo not given)
IC50 [24]: 6.1 µM (active)
IC50 [25]: 10 µM (active)

Nc1[nH]n(-c2ccccc2)c(=O)c1N=Nc1ccc2c(c1)OCCO2
IC50 (Nonstructural protein 1): 28.8 µM (active)
